This note sets out measurements from ChEMBL document CHEMBL3046418, “Synthesis and Herbicidal Activity of Sulfonylurea Compounds with Imidazo [1, 2-a] pyridine Moiety” (2001).

Common to all, as to type: functional
The test system of test [1] is Bromus tectorum. The test can be described thus: Herbicidal activity against Bromus tectorum after 4 weeks by pre-emergence greenhouse test. Also noted: concentration or dose not given beside the values.
Test [2] deals with Matricaria chamomilla. The test can be described thus: Herbicidal activity against Matricaria chamomilla after 3 weeks by post-emergence greenhouse test. Also noted: concentration or dose not given beside the values.
Test [3] has as its system Triticum aestivum. Nature of the test: Phytotoxic activity against Triticum aestivum (wheat) after 4 weeks by pre-emergence greenhouse test.
For test [4], the system named is Matricaria chamomilla. The test can be described thus: Herbicidal activity against Matricaria chamomilla after 4 weeks by pre-emergence greenhouse test. Also noted: concentration or dose not given beside the values.
Test [5] concerns Stellaria media. Nature of the test: Herbicidal activity against Stellaria media after 3 weeks by post-emergence greenhouse test. On the set-up: concentration or dose not given beside the values.
For test [6], the system named is Avena fatua. The test can be described thus: Herbicidal activity against Avena fatua after 3 weeks by post-emergence greenhouse test. Also noted: concentration or dose not given beside the values.
The subject of test [7] is Alopecurus myosuroides. Nature of the test: Herbicidal activity against Alopecurus myosuroides after 4 weeks by pre-emergence greenhouse test. On the set-up: concentration or dose not given beside the values.
For test [8], the system named is Mutarda arvensis. The test can be described thus: Herbicidal activity against Sinapis arvensis after 4 weeks by pre-emergence greenhouse test. Also noted: concentration or dose not given beside the values.
Test [9] has as its system Chenopodium album. The test can be described thus: Herbicidal activity against Chenopodium album after 4 weeks by pre-emergence greenhouse test. Also noted: concentration or dose not given beside the values.
For test [10], the system named is Mutarda arvensis. Nature of the test: Herbicidal activity against Sinapis arvensis after 3 weeks by post-emergence greenhouse test. On the set-up: concentration or dose not given beside the values.
The test system of test [11] is Stellaria media. Nature of the test: Herbicidal activity against Stellaria media after 4 weeks by pre-emergence greenhouse test. Also noted: concentration or dose not given beside the values.
The subject of test [12] is Bromus tectorum. Nature of the test: Herbicidal activity against Bromus tectorum after 3 weeks by post-emergence greenhouse test. On the set-up: concentration or dose not given beside the values.
The subject of test [13] is Alopecurus myosuroides. The test can be described thus: Herbicidal activity against Alopecurus myosuroides after 3 weeks by post-emergence greenhouse test. Also noted: concentration or dose not given beside the values.
The subject of test [14] is Avena fatua. Nature of the test: Herbicidal activity against Avena fatua after 4 weeks by pre-emergence greenhouse test. Also noted: concentration or dose not given beside the values.
For test [15], the system named is Triticum aestivum. Nature of the test: Phytotoxic activity against Triticum aestivum (wheat) after 3 weeks by post-emergence greenhouse test. Also noted: concentration or dose not given beside the values.
The subject of test [16] is Chenopodium album. Nature of the test: Herbicidal activity against Chenopodium album after 3 weeks by post-emergence greenhouse test. On the set-up: concentration or dose not given beside the values.

For the molecule `CCC[S+]([O-])c1nc2ccccn2c1S(=O)(=O)NC(=O)Nc1nc(OC)cc(OC)n1` (configuration not stated), the Activity in the test with Bromus tectorum [1] was determined as 0%; in the test with Matricaria chamomilla [2], 1%; in the test with Matricaria chamomilla [4] it was 76%; with Stellaria media [5] it was 51%; with Avena fatua [6], 0%; in the test with Alopecurus myosuroides [7], 0%. For the same molecule, the Activity in the test with Mutarda arvensis [8] came to 1%; in the test on Chenopodium album [9], 0%; with Mutarda arvensis [10], 51%; with Stellaria media [11] it was 0%; with Bromus tectorum [12] it was 1%; in the test with Alopecurus myosuroides [13], 1%. Further, the Activity in the test on Avena fatua [14] was found to be 0%; in the test on Triticum aestivum [15] it was 0%; with Chenopodium album [16], 1%. This molecule displayed a Phytotoxicity in the test on Triticum aestivum [3] of 0%.
For `COc1cc(OC)nc(NC(=O)NS(=O)(=O)c2c([S+]([O-])c3ccccc3)nc3ccccn23)n1` (configuration not stated), the Activity with Bromus tectorum [1] worked out at 0%; in the test on Matricaria chamomilla [2], 1%; in the test with Matricaria chamomilla [4] it was 1%; in the test on Stellaria media [5], 1%; in the test on Avena fatua [6], 0%; in the test on Alopecurus myosuroides [7], 0%. Also, the Activity in the test with Mutarda arvensis [8] came to 1%; in the test on Chenopodium album [9] it was 0%; in the test with Mutarda arvensis [10], 51%; with Stellaria media [11] it was 0%; in the test on Bromus tectorum [12], 1%; with Alopecurus myosuroides [13] it was 1%. Besides, the Activity in the test on Avena fatua [14], with Triticum aestivum [15] and in the test on Chenopodium album [16] was 0% each time. For the same molecule, the Phytotoxicity in the test on Triticum aestivum [3] came out at 0%.
As to `COc1cc(OC)nc(NC(=O)NS(=O)(=O)c2c(S(=O)(=O)C(C)C)nc3ccccn23)n1`, the Activity in the test on Bromus tectorum [1] came out at 51%; in the test with Matricaria chamomilla [2] it was 51%; in the test with Matricaria chamomilla [4], 88%; in the test on Stellaria media [5], 76%; with Avena fatua [6], 1%; in the test with Alopecurus myosuroides [7] it was 88%. Further, the Activity in the test with Mutarda arvensis [8] is listed as 88%; in the test on Chenopodium album [9], 76%; in the test on Mutarda arvensis [10], 51%; with Stellaria media [11], 51%; in the test with Bromus tectorum [12] it was 51%; with Alopecurus myosuroides [13], 88%. Moreover, the Activity in the test on Avena fatua [14] was found to be 1%; in the test on Triticum aestivum [15] it was 0%; in the test with Chenopodium album [16], 1%. The same molecule came in with a Phytotoxicity in the test on Triticum aestivum [3] of 0%.
Regarding `COc1cc(OC)nc(NC(=O)NS(=O)(=O)c2c(Sc3ccccc3)nc3ccccn23)n1`, the Activity is reported as 0% with Bromus tectorum [1]; 1% in the test with Matricaria chamomilla [2]; 51% in the test with Matricaria chamomilla [4]; 1% with Stellaria media [5]; 0% with Avena fatua [6]; 0% in the test on Alopecurus myosuroides [7]. In addition, the Activity came to 1% with Mutarda arvensis [8]; 0% in the test with Chenopodium album [9]; 51% with Mutarda arvensis [10]; 0% with Stellaria media [11]; 0% with Bromus tectorum [12]; 0% in the test with Alopecurus myosuroides [13]. Besides, the Activity was 0% with Avena fatua [14], 1% with Triticum aestivum [15] and 0% in the test on Chenopodium album [16]. Further, the Phytotoxicity in the test on Triticum aestivum [3] was 0%.
As to `COc1cc(OC)nc(NC(=O)NS(=O)(=O)c2c(SC(C)C)nc3ccccn23)n1`, the Activity amounted to 0% with Bromus tectorum [1]; 51% in the test with Matricaria chamomilla [2]; 88% in the test on Matricaria chamomilla [4]; 1% in the test with Stellaria media [5]; 0% in the test on Avena fatua [6]; 0% in the test on Alopecurus myosuroides [7]. In addition, the Activity in the test with Mutarda arvensis [8] amounted to 1%; in the test with Chenopodium album [9], 1%; in the test on Mutarda arvensis [10], 51%; with Stellaria media [11], 0%; with Bromus tectorum [12], 1%; with Alopecurus myosuroides [13], 1%. For the same molecule, the Activity in the test with Avena fatua [14] is on record as 0%; in the test with Triticum aestivum [15], 0%; in the test with Chenopodium album [16], 1%. The molecule also gave a Phytotoxicity with Triticum aestivum [3] of 0%.
On to `COc1cc(OC)nc(NC(=O)NS(=O)(=O)c2c([S+]([O-])C(C)C)nc3ccccn23)n1` (configuration not stated), for which the Activity in the test on Bromus tectorum [1] stood at 0%; with Matricaria chamomilla [2] it was 1%; with Matricaria chamomilla [4], 1%; in the test with Stellaria media [5] it was 1%; with Avena fatua [6] it was 0%; with Alopecurus myosuroides [7] it was 0%. Further, the Activity in the test on Mutarda arvensis [8] worked out at 1%; with Chenopodium album [9] it was 0%; in the test on Mutarda arvensis [10], 1%; in the test on Stellaria media [11] it was 0%; in the test on Bromus tectorum [12], 1%; in the test with Alopecurus myosuroides [13], 1%. The values for the Activity with Avena fatua [14], in the test with Triticum aestivum [15] and with Chenopodium album [16] were 0%, 0% and 1%, respectively. This molecule returned a Phytotoxicity in the test with Triticum aestivum [3] of 0%.
On to `COc1cc(OC)nc(NC(=O)NS(=O)(=O)c2c(SC)nc3ccccn23)n1`, for which the Activity with Bromus tectorum [1] was determined as 0%; in the test on Matricaria chamomilla [2], 76%; in the test with Matricaria chamomilla [4], 88%; in the test on Stellaria media [5], 1%; in the test on Avena fatua [6] it was 0%; in the test with Alopecurus myosuroides [7], 1%. In addition, the Activity was determined as 1% in the test with Mutarda arvensis [8]; 51% in the test with Chenopodium album [9]; 88% with Mutarda arvensis [10]; 51% with Stellaria media [11]; 1% in the test on Bromus tectorum [12]; 1% in the test with Alopecurus myosuroides [13]. Moreover, the Activity in the test with Avena fatua [14], in the test on Triticum aestivum [15] and with Chenopodium album [16] was 0% throughout. This molecule registered a Phytotoxicity in the test on Triticum aestivum [3] of 0%.
For the molecule `CCS(=O)(=O)c1nc2ccccn2c1S(=O)(=O)NC(=O)Nc1nc(Cl)cc(OC)n1`, the Activity in the test with Bromus tectorum [1] stood at 1%; with Matricaria chamomilla [2] it was 1%; in the test on Matricaria chamomilla [4], 51%; with Stellaria media [5] it was 1%; in the test on Avena fatua [6], 1%; in the test on Alopecurus myosuroides [7], 1%. Besides, the Activity in the test with Mutarda arvensis [8] is recorded as 76%; with Chenopodium album [9] it was 0%; with Mutarda arvensis [10], 100%; in the test on Stellaria media [11] it was 1%; in the test with Bromus tectorum [12] it was 51%; in the test on Alopecurus myosuroides [13] it was 51%. The Activity in the test on Avena fatua [14] is 0%; with Triticum aestivum [15], 0%; with Chenopodium album [16] it was 1%. Further, in the test with Triticum aestivum [3], the Phytotoxicity was found to be 0%.
For `COc1cc(OC)nc(NC(=O)NS(=O)(=O)c2c([S+](C)[O-])nc3ccccn23)n1` (configuration not stated), the Activity is given as 0% in the test with Bromus tectorum [1]; 76% with Matricaria chamomilla [2]; 51% with Matricaria chamomilla [4]; 0% in the test on Stellaria media [5]; 0% in the test on Avena fatua [6]; 0% in the test with Alopecurus myosuroides [7]. Also, the Activity in the test on Mutarda arvensis [8] turned out to be 51%; with Chenopodium album [9] it was 0%; in the test with Mutarda arvensis [10], 76%; in the test with Stellaria media [11], 0%; in the test on Bromus tectorum [12] it was 1%; with Alopecurus myosuroides [13], 0%. The Activity with Avena fatua [14], in the test on Triticum aestivum [15] and with Chenopodium album [16] was 0% each time. In the test with Triticum aestivum [3], this molecule registered a Phytotoxicity of 0%.
`CCCSc1nc2ccccn2c1S(=O)(=O)NC(=O)Nc1nc(OC)cc(OC)n1`: the Activity in the test on Bromus tectorum [1] came out at 0%; with Matricaria chamomilla [2], 0%; in the test with Matricaria chamomilla [4], 88%; in the test with Stellaria media [5] it was 1%; in the test on Avena fatua [6], 0%; in the test with Alopecurus myosuroides [7] it was 1%. Besides, the Activity in the test on Mutarda arvensis [8] is reported as 1%; in the test on Chenopodium album [9] it was 0%; in the test with Mutarda arvensis [10] it was 51%; with Stellaria media [11] it was 0%; in the test on Bromus tectorum [12] it was 1%; in the test on Alopecurus myosuroides [13] it was 1%. The Activity in the test on Avena fatua [14], with Triticum aestivum [15] and in the test on Chenopodium album [16] was 0% in each case. The Phytotoxicity with Triticum aestivum [3] is on record as 0%.
As for `CC[S+]([O-])c1nc2ccccn2c1S(=O)(=O)NC(=O)Nc1nc(OC)cc(OC)n1` (configuration not stated), the Activity with Bromus tectorum [1] was 0%; in the test with Matricaria chamomilla [2] it was 76%; with Matricaria chamomilla [4], 88%; in the test on Stellaria media [5], 1%; in the test with Avena fatua [6], 0%; in the test on Alopecurus myosuroides [7] it was 1%. The Activity in the test with Mutarda arvensis [8] worked out at 1%; with Chenopodium album [9], 1%; with Mutarda arvensis [10] it was 51%; in the test with Stellaria media [11], 1%; in the test on Bromus tectorum [12] it was 51%; with Alopecurus myosuroides [13], 1%. Further, the Activity in the test with Avena fatua [14] was 0%; in the test with Triticum aestivum [15], 0%; in the test on Chenopodium album [16] it was 1%. The Phytotoxicity in the test on Triticum aestivum [3] was found to be 0%.
For `CCSc1nc2ccccn2c1S(=O)(=O)NC(=O)Nc1nc(OC)cc(OC)n1`, the Activity was determined as 0% in the test on Bromus tectorum [1]; 51% with Matricaria chamomilla [2]; 88% in the test on Matricaria chamomilla [4]; 1% in the test with Stellaria media [5]; 1% in the test with Avena fatua [6]; 51% in the test on Alopecurus myosuroides [7]. The Activity is recorded as 51% in the test on Mutarda arvensis [8]; 1% with Chenopodium album [9]; 76% in the test with Mutarda arvensis [10]; 0% in the test with Stellaria media [11]; 1% in the test with Bromus tectorum [12]; 51% in the test with Alopecurus myosuroides [13]. The Activity turned out to be 0% in the test with Avena fatua [14], 0% in the test with Triticum aestivum [15] and 1% in the test on Chenopodium album [16]. In addition, the Phytotoxicity in the test with Triticum aestivum [3] was 0%.
